The conditions of test [1]: oral rinses of WO/2014/092999; cited from earlier work.
The next test concerns P. aeruginosa. Briefly: Example 9: phenoxyethanol, PCMX, pine oil compositions diluted 1:20, albumin, 15 seconds (Table 3). The test is classed as cell-based. To be noted: PXE stock 10.0% w/w, 0.5% w/w in 1 to 20 dilution. The method, then: Phenoxyethanol, PCMX and pine oil were added to 50% isopropanol in the amounts described in table 3 below (water was added to bring the total weight % of the composition 100%). The compositions described by table 3 were prepared and diluted 1:20 with water and tested using the following method. P. aeruginosa was used as the test organism (10^8 cfu/ml). 0.1 ml culture was added to 0.1 ml of a 3.0% albumin solution, mixed for 5 seconds and left for 2 minutes at room temperature. 0.8 ml of test sample was added and the tube was vortexed for 15 seconds. Serial dilutions were made with Drug Neutralizing Fluid and aliquots were plated on Trypticase soy broth agar plates. The plates were incubated for 24-48 hours and colony counts were then determined.

A further test has as its system S. aureus. Briefly: Method B: surface disinfectant base solution diluted 1:20, 1 minute (Table 8). The test is classed as cell-based. To be noted: stock solution in surface disinfectant base diluted 1:20, 1 minute (Method B).

Turning to `[H]/N=C(\N/C(=N/[H])NCCCCCCNC(=N)NC(=N)Nc1ccc(Cl)cc1)Nc1ccc(Cl)cc1` [chlorhexidine], the “synergistic activity with thymol and vanilla extract” value in test [1] is on record as “did not show significant synergistic activity”.

Take `OCCOc1ccccc1` [PXE]: the “Log reduction from control” value with P. aeruginosa is given as 0.6 log.

On to `Cc1cc(O)cc(C)c1Cl` [PCMX], for which the “log reduction from control growth” value in the test with S. aureus is 0.5 log. In the case of polyhexamethylene biguanide [PHMB], in test [1], the “synergistic activity with thymol and vanilla extract” value is recorded as “synergistic activity”.

Source of the values: US20160374352A1, “BOTANICAL ANTIMICROBIAL COMPOSITIONS” (The Trustees of Columbia University in the City of, priority 2015, published 2016).
